PubChem BioAssay (NCI)
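Briefly, cells in 96-well plates were exposed to five compound concentrations for 48 h, and endpoints were estimated by linear interpolation. At the TGI there is no net growth.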 Calls of active or inactive are those of the source. Rule as the data show it: active = GI50 below about 0.43 µM; inactive = the rest.

Assays:
Experiment in all cases: NCI tumour cell line growth inhibition, 48 h
HL-60(TB) leukemia = test system: HL-60(TB) leukemia
MOLT-4 leukemia = test system: MOLT-4 leukemia
OVCAR-4 ovarian = test system: OVCAR-4 ovarian
MDA-MB-231 breast = test system: MDA-MB-231 breast
SW-620 colon = test system: SW-620 colon
U251 CNS = test system: U251 CNS
SNB-19 CNS = test system: SNB-19 CNS
UACC-62 melanoma = test system: UACC-62 melanoma
COLO 205 colon = test system: COLO 205 colon
EKVX NSCLC = test system: EKVX NSCLC
MDA-N = test system: MDA-N
HCT-116 colon = test system: HCT-116 colon
BT-549 breast = test system: BT-549 breast
SK-OV-3 ovarian = test system: SK-OV-3 ovarian
LOX IMVI melanoma = test system: LOX IMVI melanoma
T-47D breast = test system: T-47D breast
UACC-257 melanoma = test system: UACC-257 melanoma
786-0 renal = test system: 786-0 renal
TK-10 renal = test system: TK-10 renal
SK-MEL-28 melanoma = test system: SK-MEL-28 melanoma
KM12 colon = test system: KM12 colon
HT29 colon = test system: HT29 colon
HS 578T breast = test system: HS 578T breast
MALME-3M melanoma = test system: MALME-3M melanoma
CCRF-CEM leukemia = test system: CCRF-CEM leukemia
SK-MEL-5 melanoma = test system: SK-MEL-5 melanoma
SNB-75 CNS = test system: SNB-75 CNS
HCC-2998 colon = test system: HCC-2998 colon
ACHN renal = test system: ACHN renal
CAKI-1 renal = test system: CAKI-1 renal
RPMI-8226 leukemia = test system: RPMI-8226 leukemia
HOP-92 NSCLC = test system: HOP-92 NSCLC
M14 melanoma = test system: M14 melanoma
MDA-MB-435 = test system: MDA-MB-435
A549 NSCLC = test system: A549 NSCLC
NCI-H522 lung = test system: NCI-H522 lung
DU-145 prostate = test system: DU-145 prostate
IGROV1 ovarian = test system: IGROV1 ovarian
OVCAR-8 ovarian = test system: OVCAR-8 ovarian
SF-295 CNS = test system: SF-295 CNS
NCI/ADR-RES ovarian = test system: NCI/ADR-RES ovarian
K-562 leukemia = test system: K-562 leukemia
SN12C renal = test system: SN12C renal
SK-MEL-2 melanoma = test system: SK-MEL-2 melanoma
HCT-15 colon = test system: HCT-15 colon
HOP-62 NSCLC = test system: HOP-62 NSCLC
UO-31 renal = test system: UO-31 renal
NCI-H460 lung = test system: NCI-H460 lung
SR leukemia = test system: SR leukemia
A498 renal = test system: A498 renal
SF-539 CNS = test system: SF-539 CNS
OVCAR-5 ovarian = test system: OVCAR-5 ovarian
PC-3 prostate = test system: PC-3 prostate
OVCAR-3 ovarian = test system: OVCAR-3 ovarian
MCF7 breast = test system: MCF7 breast
NCI-H226 lung = test system: NCI-H226 lung
SF-268 CNS = test system: SF-268 CNS
NCI-H23 lung = test system: NCI-H23 lung

Measured: TGI

O=C(O)CCN1CCN(CCC(=O)O)CCN(CCC(=O)O)CC1
89.3 µM: HL-60(TB) leukemia
not listed: SF-268 CNS | NCI-H23 lung
> 100 µM: all other assays above

CN1CCN(CC(=O)N2CCCn3c2nc2ccccc2c3=O)CC1
not listed: SK-MEL-28 melanoma
> 100 µM: all other assays above

COC(=O)c1cc2/c(=N/O)c3ccccc3sc2o1
not listed: UO-31 renal
> 100 µM: all other assays above

O=c1cc(-c2ccc(O)c(O)c2-c2c(O)cc(O)c3c(=O)cc(-c4ccc(O)c(O)c4)oc23)oc2cc(O)cc(O)c12
not listed: NCI-H460 lung
inactive: all other assays above
